In patent US20250368628A1, “METHODS AND COMPOUNDS FOR MODULATING INHERITED GENETIC DISEASES” (Design Therapeutics, Inc., priority 2022, published 2025) one finds EC50 data, which are given here for 21 molecules.

By EC50 is commonly meant the concentration giving half of the maximal effect.

The subject of one test is Myotonic Dystrophy 1 affected patient fibroblasts (Coriel GM04602; 1600 CTG repeats). Kind of test: DM1 foci reduction assay (EC50 assay; CAG10-Cy3 FISH, foci per nucleus). It counts as cell-based. To be noted: Homo sapiens, Fibroblast; DM1 patient fibroblasts, 48 h treatment, foci per nucleus; read-out: DM1 EC50, 48 h. In outline: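 GM04602 DM1 patient fibroblasts (1600 CTG repeats) seeded 24 h, then treated 48 h at 37 °C with an 8-point 1:3 dose series from 3 μM. Cells PFA-fixed, ethanol-permeabilized and hybridized overnight with 5 nM CAG10-Cy3 probe, DAPI counterstained. Imaged at 20×, 4 fields per well, as average foci per nucleus.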
On to `Cn1cc(NC(=O)c2nc(NC(=O)CCNC(=O)c3cc(NC(=O)c4nccn4C)cn3C)cn2C)cc1C(=O)NCCCC(=O)Nc1cn(C)c(C(=O)NCCC(=O)Nc2cc(C(=O)Nc3cn(C)c(C(=O)NCCC(=O)N4CCC(CC5CC[N+](C)(C)CC5)CC4)n3)n(C)c2)n1` [Compound B-262], for which the EC50 was more than 1 µM. On the same count and under the same terms, to `Cn1cnc(NC(=O)c2cc(NC(=O)CCNC(=O)c3nc(NC(=O)CCCNC(=O)c4cc(NC(=O)c5nc(NC(=O)CCNC(=O)c6cc(NC(=O)c7nccn7C)cn6C)cn5C)cn4C)cn3C)cn2C)c1` [Compound B-243] belongs more than 1 µM; to `CCCNC(=O)CCNC(=O)c1nc(NC(=O)c2cc(NC(=O)CCNC(=O)c3nc(NC(=O)CCCNC(=O)c4cc(NC(=O)c5nc(NC(=O)CCNC(=O)c6cc(NC(=O)c7nccn7C)cn6C)cn5C)cn4C)cn3C)cn2CCCCC(=O)N(CCOCCOCCOCCOC)CCOCCOCCOCCOC)cn1C` [Compound B-159], more than 1 µM; to `Cn1cc(NC(=O)c2nc(NC(=O)CCNC(=O)c3cc(NC(=O)c4nccn4C)cn3C)cn2C)cc1C(=O)NCCCC(=O)Nc1cn(C)c(C(=O)NCCC(=O)Nc2cc(C(=O)Nc3cn(C)c(C(=O)NCCOCCOCCOc4cccc(C(=O)O)c4)n3)n(C)c2)n1` [Compound B-214], 0.5 to 1 µM. Same read-out and setting: to `Cn1cc(NC(=O)c2nc(NC(=O)CCNC(=O)c3cc(NC(=O)c4nccn4C)cn3C)cn2C)cc1C(=O)NCCCC(=O)Nc1cn(C)c(C(=O)NCCC(=O)Nc2cc(C(=O)Nc3cn(C)c(C(=O)NCCC(=O)NCCOCCN4CCN(C5CCN(c6ccc([N+](=O)[O-])cc6)CC5)CC4)n3)n(C)c2)n1` [Compound B-26] belongs more than 1 µM.

For `COCCOCCOCCOCCOCCOCCOCCOCCN(CCOCCOCCOCCOCCOCCOCCOCCOC)C(=O)CCNC(=O)c1nc(NC(=O)c2cc(NC(=O)CCNC(=O)c3nc(NC(=O)CCCNC(=O)c4cc(NC(=O)c5nc(NC(=O)CCNC(=O)c6cc(NC(C)c7nccn7C)cn6C)cn5C)cn4C)cn3C)cn2C)cn1C` (stereo not drawn) [Compound B-80], the EC50 was more than 1 µM. Still for that read-out and setting: to `CCCCCC(=O)N1CCC(C#CC#CC2CCN(CCCCCNC(=O)CCNC(=O)c3nc(NC(=O)c4cc(NC(=O)CCNC(=O)c5nc(NC(=O)CCCNC(=O)c6cc(NC(=O)c7nc(NC(=O)CCNC(=O)c8cc(NC(=O)c9nccn9C)cn8C)cn7C)cn6C)cn5C)cn4C)cn3C)CC2)CC1` [Compound B-182] belongs 0.5 to 1 µM; to `COC(=O)c1cccc(CCCCCN(C)CCCNC(=O)c2nc(NC(=O)c3cc(NC(=O)CCNC(=O)c4nc(NC(=O)CCCNC(=O)c5cc(NC(=O)c6nc(NC(=O)CCNC(=O)c7cc(NC(=O)c8nccn8C)cn7C)cn6C)cn5C)cn4C)cn3C)cn2C)c1` [Compound B-340], less than 0.1 µM. For the molecule `Cn1cc(NC(=O)c2nc(NC(=O)CCNC(=O)c3cc(NC(=O)c4nccn4C)cn3C)cn2C)cc1C(=O)NCCCC(=O)Nc1cn(C)c(C(=O)NCCC(=O)Nc2cc(C(=O)Nc3cn(C)c(C(=O)NCCC(=O)NCCOCCOCCOCCOCCOc4ccc(NC(=O)OCc5ccccc5)cc4)n3)n(C)c2)n1` [Compound B-11], the EC50 is more than 1 µM. Still for that read-out and setting: to `Cn1cc(NC(=O)c2nc(NC(=O)CCNC(=O)c3cc(NC(=O)c4nccn4C)cn3C)cn2C)cc1C(=O)NCCCC(=O)Nc1cn(C)c(C(=O)NCCC(=O)Nc2cc(C(=O)Nc3cn(C)c(C(=O)NCCC(=O)NC4CCNCC4)n3)n(C)c2)n1` [Compound B-140] belongs more than 1 µM; to `CCN(CC)CCCC[C@H](NC(=O)c1cccc(C(=O)O)c1)C(=O)NCCOCCOCCOCCNC(=O)c1nc(NC(=O)c2cc(NC(=O)CCNC(=O)c3nc(NC(=O)CCCNC(=O)c4cc(NC(=O)c5nc(NC(=O)CCNC(=O)c6cc(NC(=O)c7nccn7C)cn6C)cn5C)cn4C)cn3C)cn2C)cn1C` [Compound B-221], more than 1 µM; to `CCN(CC)CCCC[C@H](NC(=O)c1cccc(C(=O)O)c1)C(=O)NCCOCCOCCOCCNC(=O)CCNC(=O)c1nc(NC(=O)c2cc(NC(=O)CCNC(=O)c3nc(NC(=O)CCCNC(=O)c4cc(NC(=O)c5nc(NC(=O)CCNC(=O)c6cc(NC(=O)c7nccn7C)cn6C)cn5C)cn4C)cn3C)cn2C)cn1C` [Compound B-223], more than 1 µM. For the molecule `CN(C)CCCCCNC(=O)CCNC(=O)c1nc(NC(=O)c2cc(NC(=O)CCNC(=O)c3nc(NC(=O)CCCNC(=O)c4cc(NC(=O)c5nc(NC(=O)CCNC(=O)c6cc(NC(=O)c7nccn7C)cn6C)cn5C)cn4C)cn3C)cn2C)cn1C` [Compound B-41], the 50% effective concentration (EC50) lay in the range of 0.1 to 0.5 µM.

As to `COCCOCCOCCOCCOCCOCCNC(=O)c1nc(NC(=O)c2cc(NC(=O)CCNC(=O)c3nc(NC(=O)CCCNC(=O)c4cc(NC(=O)c5nc(NC(=O)CCNC(=O)c6cc(NC(=O)c7nccn7C)cn6C)cn5C)cn4C)cn3C)cn2C)cn1C` [Compound B-204], the concentration giving a half-maximal response (EC50) lay in the range of 0.5 to 1 µM.

With `CCN(CC)CCCC[C@@H](NC(C)=O)C(=O)Nc1ccc(OCCOCCOCCOCCOCCOCCOCCNC(=O)CCNC(=O)c2nc(NC(=O)c3cc(NC(=O)CCNC(=O)c4nc(NC(=O)CCCNC(=O)c5cc(NC(=O)c6nc(NC(=O)CCNC(=O)c7cc(NC(=O)c8nccn8C)cn7C)cn6C)cn5C)cn4C)cn3C)cn2C)cc1` [Compound B-145], the EC50 was in the range of 0.5 to 1 µM.

Consider `Cn1cc(NC(=O)c2nc(NC(=O)CCNC(=O)c3cc(NC(=O)c4nccn4C)cn3C)cn2C)cc1C(=O)NCCCC(=O)Nc1cn(C)c(C(=O)NCCC(=O)Nc2cc(C(=O)Nc3cn(C)c(C(=O)NCCC(=O)NCCCCCN4CCC(C#CC#CC5CCN(Cc6ccc(C(C)(C)C)cc6)CC5)CC4)n3)n(C)c2)n1` [Compound B-178], for which the EC50 is more than 1 µM. In the case of `CN(C)CC#CC#Cc1ccc(NC(=O)CCNC(=O)c2nc(NC(=O)c3cc(NC(=O)CCNC(=O)c4nc(NC(=O)CCCNC(=O)c5cc(NC(=O)c6nc(NC(=O)CCNC(=O)c7cc(NC(=O)c8nccn8C)cn7C)cn6C)cn5C)cn4C)cn3C)cn2C)cc1` [Compound B-139], the EC50 is more than 1 µM. On the same count and under the same terms, to `CCN(CC)CCCC[C@H](NC(=O)c1cccc(C(=O)OC(C)(C)C)c1)C(=O)NCCOCCOCCOCCNC(=O)c1nc(NC(=O)c2cc(NC(=O)CCNC(=O)c3nc(NC(=O)CCCNC(=O)c4cc(NC(=O)c5nc(NC(=O)CCNC(=O)c6cc(NC(=O)c7nccn7C)cn6C)cn5C)cn4C)cn3C)cn2C)cn1C` [Compound B-353] belongs 0.1 to 0.5 µM.

For `CN1CCC(NC(=O)CCNC(=O)c2nc(NC(=O)c3cc(NC(=O)CCNC(=O)c4nc(NC(=O)CCCNC(=O)c5cc(NC(=O)c6nc(NC(=O)CCNC(=O)c7cc(NC(=O)c8nccn8C)cn7C)cn6C)cn5C)cn4C)cn3C)cn2C)CC1` [Compound B-55], the EC50 fell in the range of 0.1 to 0.5 µM.

Staying with this test, now noted: Homo sapiens, Fibroblast; DM1 patient fibroblasts, foci per nucleus, 48 h treatment; read-out: DM1 EC50, 48 h.
Turning to `CCn1cc(NC(=O)c2nc(NC(=O)CCNC(=O)c3cc(NC(=O)c4nccn4C)cn3C)cn2C)cc1C(=O)NCC1(CC(=O)Nc2cn(C)c(C(=O)NCCC(=O)Nc3cc(C(=O)Nc4cn(C)c(C(=O)NCCCCN(C)C)n4)n(C)c3)n2)CC1` [Compound B-436], the 50% effective concentration (EC50) is less than 0.1 µM.

Regarding `CCCNC(=O)c1nc(NC(=O)c2cc(NC(=O)CCNC(=O)c3nc(NC(=O)CC4(CNC(=O)c5cc(NC(=O)c6nc(NC(=O)CCNC(=O)c7cc(NC(=O)c8nccn8C)cn7C)cn6C)cn5C)CC4)cn3C)cn2C)cn1C` [Compound B-435, 1-methyl-4-(3-{[1-methyl-4-(1-methylimidazole-2-amido)pyrrol-2-yl]formamido}propanamido)-N-[1-methyl-5-({[1-({[1-methyl-2-({2-[(1-methyl-5-{[1-methyl-2-(propylcarbamoyl)imidazol-4-yl]carbamoyl}pyrrol-3-yl)carbamoyl]ethyl}carbamoyl)imidazol-4-yl]carbamoyl}methyl)cyclopropyl]methyl}carbamoyl)pyrrol-3-yl]imidazole-2-carboxamide], the EC50 is less than 0.1 µM.
